Data from ChEMBL document CHEMBL1201862, “PubChem BioAssay data set” (2004).
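Interpolation was linear, between the two tested concentrations surrounding the appropriate level; five concentrations were tested over 48 hours in 96-well plates. The concentration for 50% growth inhibition is given as GI50.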 Activity calls are given as the source filed them. Rule as the data show it: active = GI50 up to about 1.1 µM and inactive = higher.

What was measured:
Test in all cases: DTP human tumour cell line panel, 48 h
[1] = system: HT-29
[2] = system: COLO 205
[3] = system: UACC-257
[4] = system: U-251
[5] = system: SK-OV-3
[6] = system: 786-0
[7] = system: M14
[8] = system: OVCAR-8
[9] = system: SW-620
[10] = system: A498
[11] = system: NCI-H522
[12] = system: NCI-H23
[13] = system: RPMI-8226
[14] = system: SR
[15] = system: OVCAR-4
[16] = system: CAKI-1
[17] = system: HOP-92
[18] = system: MCF7

Measured: GI50

O=c1[nH]ccc(CNC23CC4CC(CC(C4)C2)C3)c1O
inactive: [1] > 100 µM | [2] > 100 µM | [3] > 100 µM | [4] > 100 µM | [5] > 100 µM | [6] > 100 µM | [7] > 100 µM | [8] > 100 µM | [9] > 100 µM | [10] > 100 µM | [11] 24.8 µM | [12] > 100 µM | [13] > 100 µM | [14] 45.2 µM | [15] > 100 µM | [16] 59.7 µM

CCC1CN2CCc3cc(OC)c(OC)cc3C2CC1CC1c2cc(OC)c(OC)cc2CCN1C(=O)C1CCCN1 (stereo unspecified)
inactive: [1] 27.4 µM | [2] 13 µM | [3] 17.2 µM | [4] 23.9 µM | [5] 29.4 µM | [6] 17.1 µM | [7] 14.5 µM | [17] 28.7 µM | [8] 38.8 µM | [9] 28.8 µM | [10] 28.6 µM | [11] 16.3 µM | [12] 32.5 µM | [13] 50.5 µM | [14] 19.1 µM | [15] 25.5 µM | [16] 6.44 µM

CC(C)c1cccc(C(C)C)c1NC(=O)/C(Cc1nc2ccc(Cl)cc2nc1O)=N\NC(=O)C[N+](C)(C)C
inactive: [1] > 100 µM | [2] > 100 µM | [3] > 100 µM | [5] > 100 µM | [6] > 100 µM | [7] > 100 µM | [17] 85.5 µM | [8] > 100 µM | [9] > 100 µM | [10] > 100 µM | [11] > 100 µM | [12] > 100 µM | [13] > 100 µM | [14] > 100 µM | [15] > 100 µM | [16] 95.7 µM

CCOC(OCC)C(CC)[Se]c1ccccc1 (stereo unspecified)
inactive: [1] > 100 µM | [2] 39.8 µM | [3] > 100 µM | [4] 2.25 µM | [5] > 100 µM | [6] 19.1 µM | [7] 16 µM | [17] 28.6 µM | [8] > 100 µM | [10] > 100 µM | [11] 15.6 µM | [12] 7.13 µM | [13] 18.3 µM | [14] 10.1 µM | [15] 13.3 µM | [16] > 100 µM

COc1ccc2oc3cccc(NCCN(C)C)c3c(=O)c2c1
inactive: [1] 7.83 µM | [2] 5.6 µM | [3] 16.3 µM | [4] 12.7 µM | [5] 15.2 µM | [6] 10.9 µM | [7] 15.8 µM | [17] 13.8 µM | [8] 11.1 µM | [9] 5.08 µM | [10] 19.1 µM | [12] 17.7 µM | [13] 12.6 µM | [14] 8.85 µM | [15] 12.7 µM | [16] 4.69 µM

COC(=O)C(C(=O)C(=O)Nc1ccc(Br)cc1)c1nc2ccc(Cl)cc2nc1O (stereo unspecified)
inactive: [1] > 48 µM | [2] > 45.2 µM | [3] > 100 µM | [4] > 100 µM | [5] > 100 µM | [6] > 100 µM | [7] > 100 µM | [17] > 100 µM | [8] > 100 µM | [9] > 20 µM | [10] > 100 µM | [11] > 100 µM | [12] > 100 µM | [13] > 100 µM | [14] > 100 µM | [15] > 34.5 µM | [16] > 100 µM

NC(=O)COC(=O)c1c(Cl)nc2sccn12
inactive: [1] > 100 µM | [2] > 60.3 µM | [3] > 100 µM | [4] > 83 µM | [5] > 100 µM | [6] 19.1 µM | [7] > 100 µM | [17] > 100 µM | [8] > 100 µM | [9] > 35.3 µM | [10] > 100 µM | [11] > 100 µM | [12] > 100 µM | [13] > 37 µM | [14] 33.8 µM | [15] > 100 µM | [16] > 100 µM

O=C(O)/C(Cl)=C(\Cl)C(=O)Nc1ccc(Cl)c(Cl)c1Cl
inactive: [1] 20.3 µM | [2] 20 µM | [3] 18.5 µM | [4] 19.5 µM | [5] 19.7 µM | [6] 18.2 µM | [7] 18.2 µM | [17] 17.2 µM | [9] 20.5 µM | [10] 28.8 µM | [11] 10.9 µM | [12] 18.7 µM | [13] 28.9 µM | [14] 25.1 µM | [15] 19.4 µM | [16] 18.1 µM

N#Cc1ccccc1Nc1ccccc1S
inactive: [1] 57.8 µM | [2] > 100 µM | [3] 57.3 µM | [4] > 10 µM | [5] 57.1 µM | [6] 20.9 µM | [17] 35.1 µM | [8] 31.6 µM | [9] 22.1 µM | [10] 53.7 µM | [12] 37.8 µM | [14] 19.3 µM | [15] 37.9 µM | [16] > 100 µM

COc1cc(Br)c(/C=N\c2cccc3ccc(OS(=O)(=O)c4cccc([N+](=O)[O-])c4)cc23)cc1OC
inactive: [1] 34.7 µM | [2] 66.8 µM | [3] 41.1 µM | [4] 19.1 µM | [5] > 100 µM | [6] 25.4 µM | [17] 2.44 µM | [8] 24 µM | [9] 48.1 µM | [10] 66.5 µM | [11] 22.1 µM | [12] 12.5 µM | [13] 24 µM | [14] 20.2 µM | [15] 28.1 µM | [16] 19.1 µM

C=CCc1cc2cccc(OC)c2oc1=O
inactive: [1] > 100 µM | [2] > 100 µM | [3] > 100 µM | [4] > 100 µM | [6] > 100 µM | [7] > 100 µM | [17] 92.3 µM | [8] > 100 µM | [9] > 100 µM | [10] > 100 µM | [11] 6.9 µM | [12] > 100 µM | [13] > 100 µM | [14] 44.3 µM | [15] > 100 µM | [16] > 100 µM

Nc1nc(O)c2nc(CNc3ccc(C(=O)NC(CCC(=O)O)C(=O)O)cc3)cnc2n1 (stereo unspecified)
inactive: [1] > 100 µM | [3] > 100 µM | [4] > 100 µM | [5] > 10 µM | [6] > 100 µM | [7] > 100 µM | [8] > 100 µM | [9] > 100 µM | [11] > 100 µM | [12] > 100 µM | [13] > 100 µM | [18] > 100 µM | [14] > 100 µM | [15] > 100 µM
